# Activity calls are given as the source filed them. The calls are words filed in the database; no cut-off is given here.
# Assays:
# Mus musculus [1] = test: Neurotoxicity in albino CF1 mouse assessed as behavioral impairment at 300 mg/kg, ip after 0.5 hrs by rotorod test; assay type: toxicity, organism-based; conditions: in vivo
# [2] = Protective index, ratio of TD50 for neurotoxicity in ip dosed albino Sprague-Dawley rat to ED50 for anticonvulsant activity in ip dosed subcutaneous metrazol-induced seizure albino Sprague-Dawley rat model; assay type: toxicity, organism-based; conditions: in vivo, read-out: Ratio TD50/ED50
# Rattus norvegicus [3] = test: Neurotoxicity in albino Sprague-Dawley rat assessed as behavioral impairment at 30 mg/kg, ip after 0.25 hrs by rotorod test; assay type: toxicity, organism-based; conditions: in vivo
# Rattus norvegicus [4] = test: Neurotoxicity in albino Sprague-Dawley rat assessed as behavioral impairment at 30 mg/kg, po after 2 hrs by rotorod test; assay type: toxicity, organism-based; conditions: in vivo
# Rattus norvegicus [5] = test: Anticonvulsant activity in ip dosed albino Sprague-Dawley rat assessed as protection against subcutaneous metrazol-induced seizures by measuring time to peak effect; assay type: functional
# Mus musculus [6] = test: Neurotoxicity in albino CF1 mouse assessed as behavioral impairment at 50 mg/kg, ip after 0.5 hrs by rotorod test; assay type: toxicity, organism-based; conditions: in vivo
# Rattus norvegicus [7] = test: Neurotoxicity in albino Sprague-Dawley rat assessed as behavioral impairment at 30 mg/kg, ip after 2 hrs by rotorod test; assay type: toxicity, organism-based; conditions: in vivo
# Mus musculus [8] = test: Neurotoxicity in albino CF1 mouse assessed as behavioral impairment at 100 mg/kg, ip after 2 hrs by rotorod test; assay type: toxicity, organism-based; conditions: in vivo
# Mus musculus [9] = test: Anticonvulsant activity in albino CF1 mouse assessed as protection against maximal electroshock-induced seizures at 100 mg/kg, ip after 0.5 hrs; assay type: functional, organism-based
# Mus musculus [10] = test: Neurotoxicity in albino CF1 mouse assessed as behavioral impairment at 300 mg/kg, ip after 2 hrs by rotorod test; assay type: toxicity, organism-based; conditions: in vivo
# Rattus norvegicus [11] = test: Neurotoxicity in albino Sprague-Dawley rat assessed as behavioral impairment at 30 mg/kg, ip after 1 hr by rotorod test; assay type: toxicity, organism-based; conditions: in vivo
# Rattus norvegicus [12] = test: Anticonvulsant activity in ip dosed albino Sprague-Dawley rat assessed as protection against maximal electroshock-induced seizures by measuring time to peak effect; assay type: functional
# [13] = Protective index, ratio of TD50 for neurotoxicity in ip dosed albino Sprague-Dawley rat to ED50 for anticonvulsant activity in ip dosed maximal electroshock-induced seizure albino Sprague-Dawley rat model; assay type: toxicity, organism-based; conditions: in vivo, read-out: Ratio TD50/ED50
# Mus musculus [14] = test: Anticonvulsant activity in albino CF1 mouse assessed as protection against 32 mA current-induced seizure at 30 mg/kg, ip after 0.5 hrs by 6 Hz psychomotor test; assay type: functional, organism-based
# Rattus norvegicus [15] = test: Neurotoxicity in albino Sprague-Dawley rat assessed as behavioral impairment at 30 mg/kg, po after 0.25 hrs by rotorod test; assay type: toxicity, organism-based; conditions: in vivo
# Mus musculus [16] = test: Anticonvulsant activity in albino CF1 mouse assessed as protection against maximal electroshock-induced seizures at 30 mg/kg, ip after 2 hrs; assay type: functional, organism-based
# Mus musculus [17] = test: Anticonvulsant activity in ip dosed albino CF1 mouse assessed as protection against 6 Hz current-induced seizures by psychomotor test; assay type: functional
# Mus musculus [18] = test: Anticonvulsant activity in ip dosed albino CF1 mouse assessed as protection against subcutaneous metrazol-induced seizures by measuring time to peak effect; assay type: functional
# Mus musculus [19] = test: Anticonvulsant activity in albino CF1 mouse assessed as protection against 44 mA current-induced seizure at 50 mg/kg, ip after 2 hrs by 6 Hz psychomotor test; assay type: functional, organism-based
# Rattus norvegicus [20] = test: Neurotoxicity in albino Sprague-Dawley rat assessed as behavioral impairment at 30 mg/kg, po after 0.5 hrs by rotorod test; assay type: toxicity, organism-based; conditions: in vivo
# Mus musculus [21] = test: Neurotoxicity in albino CF1 mouse assessed as behavioral impairment at 50 mg/kg, ip after 0.25 hrs by rotorod test; assay type: toxicity, organism-based; conditions: in vivo
# [22] = Protective index, ratio of TD50 for neurotoxicity in ip dosed albino CF1 mouse to ED50 for anticonvulsant activity in ip dosed maximal electroshock-induced seizure albino CF1 mouse model; assay type: toxicity, organism-based; conditions: in vivo, read-out: Ratio TD50/ED50
# Mus musculus [23] = test: Anticonvulsant activity in ip dosed albino CF1 mouse assessed as protection against 6 Hz current-induced seizure by measuring time to peak effect; assay type: functional
# Mus musculus [24] = test: Anticonvulsant activity in albino CF1 mouse assessed as protection against 44 mA current-induced seizure at 50 mg/kg, ip after 1 hr by 6 Hz psychomotor test; assay type: functional, organism-based
# [25] = Neurotoxicity in ip dosed albino Sprague-Dawley rat assessed as motor impairment by rotorod test; assay type: toxicity, organism-based; conditions: in vivo
# Rattus norvegicus [26] = test: Anticonvulsant activity in ip dosed albino Sprague-Dawley rat assessed as protection against maximal electroshock-induced seizures; assay type: functional
# Rattus norvegicus [27] = test: Anticonvulsant activity in albino Sprague-Dawley rat assessed as protection against maximal electroshock-induced seizures at 30 mg/kg, po after 2 hrs; assay type: functional, organism-based
# Mus musculus [28] = test: Neurotoxicity in albino CF1 mouse assessed as behavioral impairment at 50 mg/kg, ip after 2 hrs by rotorod test; assay type: toxicity, organism-based; conditions: in vivo
# Rattus norvegicus [29] = test: Neurotoxicity in albino Sprague-Dawley rat assessed as behavioral impairment at 30 mg/kg, ip after 0.5 hrs by rotorod test; assay type: toxicity, organism-based; conditions: in vivo
# Mus musculus [30] = test: Neurotoxicity in albino CF1 mouse assessed as behavioral impairment at 30 mg/kg, ip after 2 hrs by rotorod test; assay type: toxicity, organism-based; conditions: in vivo
# Mus musculus [31] = test: Anticonvulsant activity in albino CF1 mouse assessed as protection against 44 mA current-induced seizure at 50 mg/kg, ip after 0.25 hrs by 6 Hz psychomotor test; assay type: functional, organism-based
# [32] = Protective index, ratio of TD50 for neurotoxicity in ip dosed albino CF1 mouse to ED50 for anticonvulsant activity in ip dosed […] metrazol-induced seizure albino CF1 mouse model; assay type: toxicity, organism-based; conditions: in vivo, read-out: Ratio TD50/ED50
# Rattus norvegicus [33] = test: Neurotoxicity in albino Sprague-Dawley rat assessed as behavioral impairment at 30 mg/kg, po after 1 hr by rotorod test; assay type: toxicity, organism-based; conditions: in vivo
# [34] = Neurotoxicity in ip dosed albino CF1 mouse assessed as motor impairment by rotorod test; assay type: toxicity, organism-based; conditions: in vivo
# Mus musculus [35] = test: Anticonvulsant activity in ip dosed albino CF1 mouse assessed as protection against maximal electroshock-induced seizures by measuring time to peak effect; assay type: functional
# Rattus norvegicus [36] = test: Anticonvulsant activity in ip dosed albino Sprague-Dawley rat assessed as protection against subcutaneous metrazol-induced seizures; assay type: functional
# Mus musculus [37] = test: Anticonvulsant activity in albino CF1 mouse assessed as protection against 32 mA current-induced seizure at 30 mg/kg, ip after 2 hrs by 6 Hz psychomotor test; assay type: functional, organism-based
# Mus musculus [38] = test: Anticonvulsant activity in ip dosed albino CF1 mouse assessed as protection against maximal electroshock-induced seizures; assay type: functional
# Mus musculus [39] = test: Neurotoxicity in albino CF1 mouse assessed as behavioral impairment at 50 mg/kg, ip after 1 hr by rotorod test; assay type: toxicity, organism-based; conditions: in vivo
# Mus musculus [40] = test: Anticonvulsant activity in ip dosed albino CF1 mouse assessed as protection against subcutaneous metrazol-induced seizures; assay type: functional
# Mus musculus [41] = test: Neurotoxicity in albino CF1 mouse assessed as behavioral impairment at 30 mg/kg, ip after 0.5 hrs by rotorod test; assay type: toxicity, organism-based; conditions: in vivo
# Rattus norvegicus [42] = test: Anticonvulsant activity in albino Sprague-Dawley rat assessed as protection against maximal electroshock-induced seizures at 30 mg/kg, po after 1 hr; assay type: functional, organism-based
# Homo sapiens = test: Anticonvulsant activity in patient assessed as improvement in seizure control at 600 mg/day administered up to 1 year; assay type: functional
# Mus musculus [43] = test: Neurotoxicity in albino CF1 mouse assessed as behavioral impairment at 100 mg/kg, ip after 1 hr by rotorod test; assay type: toxicity, organism-based; conditions: in vivo
# Mus musculus [44] = test: Anticonvulsant activity in albino CF1 mouse assessed as protection against maximal electroshock-induced seizures at 100 mg/kg, ip after 2 hrs; assay type: functional, organism-based
# Rattus norvegicus [45] = test: Anticonvulsant activity in albino Sprague-Dawley rat assessed as protection against maximal electroshock-induced seizures at 30 mg/kg, ip after 0.5 hrs; assay type: functional, organism-based
# Mus musculus [46] = test: Neurotoxicity in albino CF1 mouse assessed as behavioral impairment at 100 mg/kg, ip after 0.25 hrs by rotorod test; assay type: toxicity, organism-based; conditions: in vivo
# Rattus norvegicus [47] = test: Anticonvulsant activity in albino Sprague-Dawley rat assessed as protection against maximal electroshock-induced seizures at 30 mg/kg, po after 0.25 hrs; assay type: functional, organism-based
# Mus musculus [48] = test: Anticonvulsant activity in albino CF1 mouse assessed as protection against 44 mA current-induced seizure at 100 mg/kg, ip after 0.5 hrs by 6 Hz psychomotor test; assay type: functional, organism-based
# Mus musculus [49] = test: Anticonvulsant activity in albino CF1 mouse assessed as protection against 44 mA current-induced seizure at 100 mg/kg, ip after 0.25 hrs by 6 Hz psychomotor test; assay type: functional, organism-based
# Mus musculus [50] = test: Neurotoxicity in albino CF1 mouse assessed as behavioral impairment at 100 mg/kg, ip after 0.5 hrs by rotorod test; assay type: toxicity, organism-based; conditions: in vivo
smiles,measurement,setting,value
CCCC(COC(=O)NCCCn1ccnc1)C(C)CC (stereo unspecified),Activity,Mus musculus [1],Toxic
same,selectivity ratio,[2],1
same,Activity,Rattus norvegicus [3],Non-toxic
same,Activity,Rattus norvegicus [4],Non-toxic
same,Time,Rattus norvegicus [5],0.25 h
same,Activity,Mus musculus [6],Non-toxic
same,Activity,Rattus norvegicus [7],Non-toxic
same,Activity,Mus musculus [8],Non-toxic
same,Activity,Mus musculus [9],Active
same,Activity,Mus musculus [10],Toxic
same,Activity,Rattus norvegicus [11],Non-toxic
same,Time,Rattus norvegicus [12],0.25 h
same,selectivity ratio,[13],4.8
same,Activity,Mus musculus [14],inactive
same,Activity,Rattus norvegicus [15],Non-toxic
same,Activity,Mus musculus [16],inactive
same,ED50,Mus musculus [17],inactive
same,Time,Mus musculus [18],0.5 h
same,Activity,Mus musculus [19],inactive
same,Activity,Rattus norvegicus [20],Non-toxic
same,Activity,Mus musculus [21],Non-toxic
same,selectivity ratio,[22],2.8
same,Time,Mus musculus [23],0.5 h
same,Activity,Mus musculus [24],inactive
same,TD50,[25],96 mg/kg
same,ED50,Rattus norvegicus [26],20 mg/kg
same,Activity,Rattus norvegicus [27],inactive
same,Activity,Mus musculus [28],Non-toxic
same,Activity,Rattus norvegicus [29],Non-toxic
same,Activity,Mus musculus [30],Non-toxic
same,Activity,Mus musculus [31],inactive
same,selectivity ratio,[32],0.67
same,Activity,Rattus norvegicus [33],Non-toxic
same,TD50,[34],67 mg/kg
same,Time,Mus musculus [35],0.5 h
same,ED50,Rattus norvegicus [36],> 95 mg/kg
same,Activity,Mus musculus [37],inactive
same,ED50,Mus musculus [38],24 mg/kg
same,Activity,Mus musculus [39],Non-toxic
same,ED50,Mus musculus [40],> 100 mg/kg
same,Activity,Mus musculus [41],Non-toxic
same,Activity,Rattus norvegicus [42],inactive
O=C(Cn1ccnc1)c1ccc2ccccc2c1 [NAFIMIDONE],Activity,Homo sapiens,33%
CCC(CC)COC(=O)NCCCn1ccnc1,Activity,Mus musculus [43],Non-toxic
same,Activity,Mus musculus [1],Toxic
same,Activity,Rattus norvegicus [3],Non-toxic
same,Activity,Rattus norvegicus [4],Non-toxic
same,Activity,Mus musculus [44],Active
same,Activity,Rattus norvegicus [7],Non-toxic
same,Activity,Mus musculus [8],Non-toxic
same,Activity,Mus musculus [9],Active
same,Activity,Rattus norvegicus [45],Active
same,Activity,Mus musculus [10],Toxic
same,Activity,Mus musculus [46],Toxic
same,Activity,Rattus norvegicus [11],Non-toxic
same,Activity,Rattus norvegicus [15],Non-toxic
same,Activity,Mus musculus [16],inactive
same,ED50,Mus musculus [17],inactive
same,Activity,Rattus norvegicus [47],inactive
same,Activity,Mus musculus [48],Active
same,Time,Mus musculus [18],0.5 h
same,Activity,Rattus norvegicus [20],Non-toxic
same,selectivity ratio,[22],3.9
same,Time,Mus musculus [23],0.5 h
same,Activity,Mus musculus [49],Active
same,Activity,Rattus norvegicus [29],Non-toxic
same,Activity,Mus musculus [30],Non-toxic
same,Activity,Mus musculus [50],Toxic
same,selectivity ratio,[32],1.2
same,Activity,Rattus norvegicus [33],Non-toxic
same,TD50,[34],102 mg/kg
same,Time,Mus musculus [35],0.5 h
same,Activity,Mus musculus [37],inactive
same,ED50,Mus musculus [38],26 mg/kg
same,ED50,Mus musculus [40],> 85 mg/kg
same,Activity,Mus musculus [41],Non-toxic

# From ChEMBL document CHEMBL3826915, “Design and comparative anticonvulsant activity assessment of CNS-active alkyl-carbamoyl imidazole derivatives” (Bioorg Med Chem, 2016)
